For the data set, the system named is NRG-mice bearing LNCaP tumors. The data set is described as follows: Biodistribution (and PET/SPECT imaging) in NRG-mice bearing LNCaP tumors. The class given is in vivo. To be noted: Avg. A digest of the protocol:
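LNCaP xenografts (~10 million cells, left dorsal flank) grown 4-6 weeks to 200-600 mm^3 in NRG mice. Tail-vein injection of 4-6 MBq ^68Ga or 18.5 MBq ^177Lu tracer under isoflurane; CT then 10-min static PET or 1-h SPECT. Biodistribution by gamma counting of weighed organs, expressed as %ID/g.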

On to `COc1ccc(CCCC(=O)NCC(=O)NC(CCCCNC(=O)CN2CCN(CC(=O)[O-])CCN(CC(=O)[O-])CCN(CC(=O)[O-])CC2)C(=O)NCC2CCC(C(=O)NC(Cc3c4ccccc4cc4ccccc34)C(=O)NCCCCC(NC(=O)NC(CCCC(=O)O)C(=O)O)C(=O)O)CC2)cc1.[177Lu+3]` (centres unmarked) [^177Lu-HTK03170, reference compound], for which, where the note is “24 h p.i.”, the “Biodistribution: Blood” value stood at 0.73 % ID/g, the “Biodistribution: Bone” value came out at 0.18 % ID/g, the “Biodistribution: Intestine” value was determined as 0.18 % ID/g and the “Biodistribution: LNCaP tumor” value came out at 42.96 % ID/g. Moreover, where the note is “24 h p.i.”, the “Biodistribution: Liver” value worked out at 0.49 % ID/g, the “Biodistribution: Muscle” value came out at 0.10 % ID/g, the “Biodistribution: Salivary gland” value is given as 0.35 % ID/g and the “Biodistribution: Spleen” value is reported as 0.33 % ID/g. For the same compound, where the note is “24 h p.i.”, the “Biodistribution: Urine” value is 19.02 % ID/g and the “Biodistribution: kidney” value turned out to be 6.06 % ID/g. For the same compound, under “72 h p.i.”, the “Biodistribution: Blood” value amounted to 0.07 % ID/g, the “Biodistribution: Bone” value is 0.19 % ID/g, the “Biodistribution: Intestine” value was 0.08 % ID/g and the “Biodistribution: LNCaP tumor” value is 56.98 % ID/g. For the setting “72 h p.i.”, the “Biodistribution: Liver” value is 0.27 % ID/g, the “Biodistribution: Muscle” value is recorded as 0.15 % ID/g, the “Biodistribution: Salivary gland” value amounted to 0.31 % ID/g and the “Biodistribution: Spleen” value was 0.36 % ID/g. For the same compound, where the note is “72 h p.i.”, the “Biodistribution: Urine” value amounted to 4.96 % ID/g and the “Biodistribution: kidney” value was found to be 4.30 % ID/g.

For the origin of these results see patent publication US20250186627A1, “RADIOLABELED COMPOUNDS TARGETING THE PROSTATE-SPECIFIC MEMBRANE ANTIGEN” (PROVINCIAL HEALTH SERVICES AUTHORITY, priority 2022, published 2025).
